In patent US11161844B2, “Cyclic substituted imidazo[4,5-c]quinoline derivatives” (Pfizer Inc., priority 2017, dated 2021) one finds IC50 data, which are given here for 26 molecules.

The target of test [1] is mutant G2019S LRRK2 (Homo sapiens (Human), UniProt Q5S007, G2019S). As to the kind of experiment: LRRK2 kinase assay (Lantha Screen), mutant G2019S. The class given is biochemical. The note with it: 100 nM LRRKtide, 1 mM ATP, 2 μg/mL enzyme; single determination unless otherwise indicated. As to the method:
(§1) LRRK2 kinase activity was measured using Lantha Screen technology from Invitrogen. GST-tagged truncated LRRK2 from Invitrogen (Cat #PV4874) was incubated with a fluorescein-labeled peptide substrate based upon ezrin/radixin/moesin (ERM), also known as LRRKtide (Invitrogen cat #PR8976A), in the presence of a dose response of compound. Upon completion, the assay was stopped and detected with a terbium labeled anti-phospho-ERM antibody (Invitrogen, cat #PR8975A). The assay was carried out under the following protocol: The compound dose response was prepared by diluting compound to a top concentration of 0.3 mM in 100% DMSO and serial diluted by half-log in DMSO to give an 11 point curve, 100× final assay concentration. Using Echo acoustic dispensing, 60 nL of compound was transferred to a low volume Corning 384-well assay plate. 3 μL of a working solution of substrate (200 nM LRRKtide, 2 mM ATP) prepared in assay buffer (50 mM HEPES, pH 7.5, 3 mM MgCl2, with 2 mM DTT and 0.01% Brij35 added fresh) was added to the 60 nL compound assay plate. The kinase reaction was started with 3 μL of a working solution of LRRK2 enzyme at a concentration of 4 μg/mL. The final reaction concentrations were 100 nM LRRKtide, 1 mM ATP, 2 μg/mL LRRK2 enzyme and a compound dose response with a top dose of 3 μM. The reaction was allowed to progress at room temperature for 30 minutes and then stopped with the addition of 6 μL of detection buffer (20 mM Tris pH 7.6, 0.01% NP-40, 6 mM EDTA with 2 nM terbium labeled anti-phospho-ERM). After an incubation of 1 hour at room temperature, the plate was read on an Envision with an excitation wavelength of 340 nm and a reading emission at both 520 nm and 495 nm. The ratio of the 520 nm and 495 nm emission was used to analyze the data. Inhibition of mutant G2019S LRRK2 (Invitrogen cat #PV4881) was measured in the exact same method. All final concentrations of substrate ATP and enzyme were the same.

Test [2] has as its target LRRK2, WT (GST-tagged truncated LRRK2) (Homo sapiens (Human), UniProt Q5S007). As to the kind of experiment: LRRK2 kinase assay (Lantha Screen), wild type. The note with it: 100 nM LRRKtide, 1 mM ATP, 2 μg/mL enzyme; geometric mean of 2-4 determinations unless otherwise indicated. The class given is biochemical. As to the method: as §1

Sequence of mutant G2019S LRRK2 (Q5S007 970-2527 G2019S): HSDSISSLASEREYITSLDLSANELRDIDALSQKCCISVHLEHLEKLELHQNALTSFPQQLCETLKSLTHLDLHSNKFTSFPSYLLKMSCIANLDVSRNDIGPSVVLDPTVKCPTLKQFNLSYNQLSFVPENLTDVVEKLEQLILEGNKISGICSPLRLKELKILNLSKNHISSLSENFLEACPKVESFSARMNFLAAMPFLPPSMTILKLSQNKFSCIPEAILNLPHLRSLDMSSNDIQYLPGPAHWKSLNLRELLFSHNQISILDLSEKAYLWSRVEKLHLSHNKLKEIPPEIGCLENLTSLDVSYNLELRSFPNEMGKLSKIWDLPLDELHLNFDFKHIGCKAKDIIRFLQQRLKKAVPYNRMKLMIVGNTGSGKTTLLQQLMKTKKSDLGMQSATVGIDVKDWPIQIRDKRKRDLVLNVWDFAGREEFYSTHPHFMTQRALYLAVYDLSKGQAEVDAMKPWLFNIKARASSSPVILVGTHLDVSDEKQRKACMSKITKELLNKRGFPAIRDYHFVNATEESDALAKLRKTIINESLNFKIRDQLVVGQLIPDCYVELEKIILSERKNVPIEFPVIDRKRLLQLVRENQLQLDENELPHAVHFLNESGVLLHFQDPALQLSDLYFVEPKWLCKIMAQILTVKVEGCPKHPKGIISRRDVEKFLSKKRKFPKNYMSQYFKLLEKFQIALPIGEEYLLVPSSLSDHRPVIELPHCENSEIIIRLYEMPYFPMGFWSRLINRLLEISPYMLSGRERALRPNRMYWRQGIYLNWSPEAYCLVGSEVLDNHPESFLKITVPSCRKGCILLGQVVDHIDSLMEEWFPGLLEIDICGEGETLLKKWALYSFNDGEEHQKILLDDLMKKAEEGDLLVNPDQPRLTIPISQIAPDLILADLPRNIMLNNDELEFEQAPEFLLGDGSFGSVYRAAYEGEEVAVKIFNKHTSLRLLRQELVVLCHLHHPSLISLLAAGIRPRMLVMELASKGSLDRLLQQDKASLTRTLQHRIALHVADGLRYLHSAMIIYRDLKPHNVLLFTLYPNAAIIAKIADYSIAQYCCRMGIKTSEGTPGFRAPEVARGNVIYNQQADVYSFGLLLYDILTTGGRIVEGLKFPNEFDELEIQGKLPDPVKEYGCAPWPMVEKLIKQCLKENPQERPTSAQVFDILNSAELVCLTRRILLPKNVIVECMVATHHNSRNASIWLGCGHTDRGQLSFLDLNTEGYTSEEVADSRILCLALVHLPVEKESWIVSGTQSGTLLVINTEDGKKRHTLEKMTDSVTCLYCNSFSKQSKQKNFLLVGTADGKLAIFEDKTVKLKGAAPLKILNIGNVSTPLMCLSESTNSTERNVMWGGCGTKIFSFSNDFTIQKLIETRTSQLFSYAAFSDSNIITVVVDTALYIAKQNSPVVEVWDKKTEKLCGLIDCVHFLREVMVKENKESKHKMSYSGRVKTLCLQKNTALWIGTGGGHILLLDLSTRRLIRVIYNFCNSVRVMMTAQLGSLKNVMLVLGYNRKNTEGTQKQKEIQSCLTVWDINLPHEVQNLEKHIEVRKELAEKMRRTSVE
Sequence of LRRK2, WT (GST-tagged truncated LRRK2) (Q5S007 970-2527): as the sequence (Q5S007 970-2527 G2019S) above, with S1050G counted along it

Usually IC50 stands for the concentration that inhibits the measured activity by half. A low value points to greater potency in that assay. Turning to `C[C@@H]1C[C@H](n2c(C3CCC(F)C3)nc3cnc4ccc(C#N)cc4c32)CCO1` (single isomer, unassigned) [Example 13], the IC50 in test [1] turned out to be 3.84 nM; in test [2], 6.29 nM. As for `N#CC[C@@H]1C[C@H](n2c(C3CC(F)(F)C3)nc3cnc4ccc(Cl)cc4c32)CCO1` (single isomer, unassigned) [Example 27, {cis-4-[8-chloro-2-(3,3-difluorocyclobutyl)-1H-imidazo[4,5-c]quinolin-1-yl]tetrahydro-2H-pyran-2-yl}acetonitrile], the IC50 in test [1] was found to be 12.2 nM; in test [2], 12 nM. On the same counts, the results for `C[C@@H]1C[C@H](n2c3c(cnc4ccc(Cl)cc43)nc2[C@H]2CC[C@@H](F)CC2)CCO1` [Example 1, 8-chloro-2-(cis-4-fluorocyclohexyl)-1-[(2R,4R)-2-methyltetrahydro-2H-pyran-4-yl]-1H-imidazo[4,5-c]quinoline] are 4.75 nM and 7.32 nM. In the case of `C[C@@H]1C[C@H](n2c3c(cnc4ccc(Cl)cc43)nc2[C@H]2C[C@@H](F)C2)CCO1` [Example 2, 8-chloro-2-(cis-3-fluorocyclobutyl)-1-[(2R,4R)-2-methyltetrahydro-2H-pyran-4-yl]-1H-imidazo[4,5-c]quinoline], the figures for the concentration for half-maximal inhibition (IC50) in test [1] and in test [2] were 5.49 nM and 8.99 nM, respectively. The matching figures for `C[C@@H]1C[C@H](n2c(C3CC(C)(F)C3)nc3cnc4ccc(Cl)cc4c32)CCO1` (stereo partly drawn) [Example 3, 8-chloro-2-(cis-3-fluoro-3-methylcyclobutyl)-1-[(2R,4R)-2-methyltetrahydro-2H-pyran-4-yl]-1H-imidazo[4,5-c]quinoline]: 5.44 nM and 6.81 nM. On the same counts, the results for `C[C@@H]1C[C@H](n2c([C@H]3CCOC3)nc3cnc4ccc(Cl)cc4c32)CCO1` [Example 4, 8-chloro-1-[(2R,4R)-2-methyltetrahydro-2H-pyran-4-yl]-2-[(3R)-tetrahydrofuran-3-yl]-1H-imidazo[4,5-c]quinoline] are 7.4 nM and 12.3 nM.

Regarding `C[C@@H]1C[C@H](n2c(C3CC(C)(F)C3)nc3cnc4ccc(Cl)cc4c32)CCO1` (stereo partly drawn) [Example 5, 8-chloro-2-(3-fluoro-3-methylcyclobutyl)-1-[(2R,4R)-2-methyltetrahydro-2H-pyran-4-yl]-1H-imidazo[4,5-c]quinoline], the IC50 in test [1] is 17.2 nM; in test [2] it was 16.4 nM. On the same counts, the results for `CO[C@H]1C[C@@H](c2nc3cnc4ccc(Cl)cc4c3n2[C@@H]2CCO[C@H](C)C2)C1` [Example 6, 8-chloro-2-(cis-3-methoxycyclobutyl)-1-[(2R,4R)-2-methyltetrahydro-2H-pyran-4-yl]-1H-imidazo[4,5-c]quinoline] are 11.9 nM and 19.1 nM. As to `C[C@@H]1C[C@H](n2c(C3CCOCC3)nc3cnc4ccc(Cl)cc4c32)CCO1` [Example 7, 8-chloro-1-[(2R,4R)-2-methyltetrahydro-2H-pyran-4-yl]-2-(tetrahydro-2H-pyran-4-yl)-1H-imidazo[4,5-c]quinoline], the IC50 in test [1] was determined as 18.2 nM; in test [2] it was 16.3 nM.

With `C[C@@H]1C[C@H](n2c(C3CCC(F)(F)CC3)nc3cnc4ccc(Cl)cc4c32)CCO1` [Example 8, 8-chloro-2-(4,4-difluorocyclohexyl)-1-[(2R,4R)-2-methyltetrahydro-2H-pyran-4-yl]-1H-imidazo[4,5-c]quinoline], the IC50 in test [1] was found to be 12.1 nM; in test [2], 15.9 nM.

As for `C[C@@H]1C[C@H](n2c(C3CCCO3)nc3cnc4ccc(Cl)cc4c32)CCO1` (stereo partly drawn) [Example 9, 8-chloro-1-[(2R,4R)-2-methyltetrahydro-2H-pyran-4-yl]-2-(tetrahydrofuran-2-yl)-1H-imidazo[4,5-c]quinoline], the IC50 in test [1] stood at 11.3 nM; in test [2], 18.5 nM. Consider `CC1CC(c2nc3cnc4ccc(Cl)cc4c3n2[C@@H]2CCO[C@H](C)C2)CO1` (stereo partly drawn) [Example 10, 8-chloro-2-(5-methyltetrahydrofuran-3-yl)-1-[(2R,4R)-2-methyltetrahydro-2H-pyran-4-yl]-1H-imidazo[4,5-c]quinoline], for which the results for the IC50 in test [1] and in test [2] were 23.3 nM and 23.1 nM, respectively. In turn, `C[C@@H]1C[C@H](n2c([C@H]3CCOC3)nc3cnc4ccc(C(F)F)cc4c32)CCO1` [Example 21, 8-(difluoromethyl)-1-((2R,4R)-2-methyltetrahydro-2H-pyran-4-yl)-2-((R)-tetrahydrofuran-3-yl)-1H-imidazo[4,5-c]quinoline] yielded an IC50 in test [2] of 16.6 nM. That is a double-digit nanomolar value. Same read-out and setting: to `C[C@@H]1C[C@H](n2c(C3CCC(F)C3)nc3cnc4ccc(F)cc4c32)CCO1` (stereo partly drawn) [Example 37, 8-fluoro-2-[trans-3-fluorocyclopentyl]-1-[(2R,4R)-2-methyltetrahydro-2H-pyran-4-yl]-1H-imidazo[4,5-c]quinoline] belongs 200 nM; to `C[C@@H]1C[C@H](n2c(C3CCC(F)C3)nc3cnc4ccc(F)cc4c32)CCO1` (stereo partly drawn) [Example 38, 8-fluoro-2-[trans-3-fluorocyclopentyl]-1-[(2R,4R)-2-methyltetrahydro-2H-pyran-4-yl]-1H-imidazo[4,5-c]quinoline], 202 nM; to `N#Cc1ccc2ncc3nc([C@H]4C[C@H](F)C4)n(C4CCOCC4(F)F)c3c2c1` (stereo partly drawn) [Example 45, 1-(3,3-difluorotetrahydro-2H-pyran-4-yl)-2-(trans-3-fluorocyclobutyl)-1H-imidazo[4,5-c]quinoline-8-carbonitrile], 2140 nM. Take `CO[C@H]1C[C@H](c2nc3cnc4ccc(C#N)cc4c3n2C2CCOCC2(F)F)C1` (stereo partly drawn) [Example 50, 1-(3,3-difluorotetrahydro-2H-pyran-4-yl)-2-(trans-3-methoxycyclobutyl)-1H-imidazo[4,5-c]quinoline-8-carbonitrile]: the IC50 in test [2] was above 3000 nM. The same measure, in the same setting: in the case of `CO[C@H]1C[C@H](c2nc3cnc4ccc(C#N)cc4c3n2C2CCOCC2(F)F)C1` (stereo partly drawn) [Example 51, 1-(3,3-difluorotetrahydro-2H-pyran-4-yl)-2-(trans-3-methoxycyclobutyl)-1H-imidazo[4,5-c]quinoline-8-carbonitrile] it was 272 nM. Still for that read-out and setting: in the case of `CC1(C)C[C@H](n2c([C@H]3CC[C@H](F)C3)nc3cnc4ccc(C#N)cc4c32)CCO1` [Example 53, 1-[(4R)-2,2-dimethyltetrahydro-2H-pyran-4-yl]-2-[(1S,3S)-3-fluorocyclopentyl]-1H-imidazo[4,5-c]quinoline-8-carbonitrile] it was 413 nM; in that of `CC1(C)C[C@H](n2c([C@@H]3CC[C@H](F)C3)nc3cnc4ccc(C#N)cc4c32)CCO1` [Example 54, 1-[(4R)-2,2-dimethyltetrahydro-2H-pyran-4-yl]-2-[(1R,3S)-3-fluorocyclopentyl]-1H-imidazo[4,5-c]quinoline-8-carbonitrile], above 3000 nM; in that of `CC1(C)C[C@H](n2c([C@@H]3CC[C@@H](F)C3)nc3cnc4ccc(C#N)cc4c32)CCO1` [Example 55, 1-[(4R)-2,2-dimethyltetrahydro-2H-pyran-4-yl]-2-[(1R,3R)-3-fluorocyclopentyl]-1H-imidazo[4,5-c]quinoline-8-carbonitrile], 2520 nM. `CC1(C)C[C@H](n2c([C@H]3CC[C@@H](F)C3)nc3cnc4ccc(C#N)cc4c32)CCO1` [Example 56, 1-[(4R)-2,2-dimethyltetrahydro-2H-pyran-4-yl]-2-[(1S,3R)-3-fluorocyclopentyl]-1H-imidazo[4,5-c]quinoline-8-carbonitrile] returned an IC50 in test [2] above 3000 nM. The same measure, in the same setting: to `CN1CC(n2c(C3CCC(F)C3)nc3cnc4ccc(C#N)cc4c32)C(F)(F)C1` (centres unmarked) [Example 61, 1-(4,4-difluoro-1-methylpyrrolidin-3-yl)-2-(3-fluorocyclopentyl)-1H-imidazo[4,5-c]quinoline-8-carbonitrile] belongs 464 nM; to `CN1CC(n2c(C3CCC(F)C3)nc3cnc4ccc(C#N)cc4c32)C(F)(F)C1` (centres unmarked) [Example 62, 1-(4,4-difluoro-1-methylpyrrolidin-3-yl)-2-(3-fluorocyclopentyl)-1H-imidazo[4,5-c]quinoline-8-carbonitrile], above 3000 nM; to `CN1CC(n2c(C3CCC(F)C3)nc3cnc4ccc(C#N)cc4c32)C(F)(F)C1` (centres unmarked) [Example 63, 1-(4,4-difluoro-1-methylpyrrolidin-3-yl)-2-(3-fluorocyclopentyl)-1H-imidazo[4,5-c]quinoline-8-carbonitrile], above 1840 nM. Still for that read-out and setting: to `CN1CC(n2c(C3CCC(F)C3)nc3cnc4ccc(C#N)cc4c32)C(F)(F)C1` (centres unmarked) [Example 64, 1-(4,4-difluoro-1-methylpyrrolidin-3-yl)-2-(3-fluorocyclopentyl)-1H-imidazo[4,5-c]quinoline-8-carbonitrile] belongs 2300 nM.
